For 16 compounds, IC50 results are on record in patent US9586956B2, “Isoquinoline and naphthyridine derivatives” (Genentech, Inc., priority 2012, dated 2017).

The target in experiment [1] is T1, purified human MAP4K4 kinase domain (Homo sapiens, UniProt O95819).
T1 construct: purified human MAP4K4 kinase domain
As to the kind of experiment: MAP4K4 Inhibition Assay Protocol No. 1 (Caliper LabChip, moesin-derived peptide phosphorylation). It counts as biochemical. The settings on record: Assay 1; 1 nM enzyme, 10 uM ATP, 45 min. The method, boiled down:
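1 nM enzyme with 1 uM 5-carboxyfluorescein-labelled moesin peptide and 10 uM ATP in 50 mM Hepes pH 7.2, 10 mM MgCl2, 2% DMSO, 45 min at room temperature, then EDTA stop. Phosphorylated fraction of peptide measured by microfluidic mobility shift; IC50 from four-parameter fit.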

The target of experiment [2] is T1, purified human MAP4K4 kinase domain. Kind of experiment: MAP4K4 Inhibition Assay Protocol No. 2 (Z'-LYTE FRET). It counts as biochemical. The settings on record: Assay 2; 1 nM enzyme, 10 uM ATP, 60 min. The text has this:
The kinase activity of purified human MAP4K4 kinase domain was monitored using Z'-LYTE™ technology from Invitrogen to determine inhibition constants (IC50) of small molecule inhibitors. The Z'-LYTE™ biochemical assay employs a fluorescence-based, coupled-enzyme format and is based on the differential sensitivity of phosphorylated and non-phosphorylated peptides to proteolytic cleavage. In the primary reaction, the kinase transfers the gamma-phosphate of ATP to a single tyrosine, serine or threonine residue in a synthetic FRET-peptide. In the secondary reaction, a site-specific protease recognizes and cleaves non-phosphorylated FRET-peptides. Phosphorylation of FRET-peptides suppresses cleavage by the Development Reagent. Cleavage disrupts FRET between the donor (i.e., coumarin) and acceptor (i.e., fluorescein) fluorophores on the FRET-peptide, whereas uncleaved, phosphorylated FRET-peptides maintain FRET. To determine inhibition constants (IC50), compounds were serially diluted in DMSO and added to 10 uL kinase reactions containing 1 nM purified MAP4K4 enzyme, 2 uM ser/thr7 Z'-LYTE™ substrate, 10 uMATP, 50 mM Hepes (pH 7.5), 10 mM MgCl2, 1 mM EGTA, 0.01% Brij-35, and 2% DMSO. Reactions were incubated at room temperature in Corning Black 384 well plates (Corning#3573) for 60 minutes and stopped by the addition of 5 uL of Z'-LYTE™ development reagent A and incubated at room temp for 60 minutes. The plate is then analyzed on Perkin Elmer Envision by FRET mode. The high ratio of coumarin/fluorescein represents 0% phosphorylation rate while low ratio of coumarin/fluorescein represents 100% phosphorylation rate. The following equations are used to determine extent of peptide phosphorylation or inhibition: […]

For orientation: IC50 means the midpoint of a concentration-inhibition curve. A lower IC50 goes with greater potency in that assay.

T1 sequence (O95819 25-289 limits assumed): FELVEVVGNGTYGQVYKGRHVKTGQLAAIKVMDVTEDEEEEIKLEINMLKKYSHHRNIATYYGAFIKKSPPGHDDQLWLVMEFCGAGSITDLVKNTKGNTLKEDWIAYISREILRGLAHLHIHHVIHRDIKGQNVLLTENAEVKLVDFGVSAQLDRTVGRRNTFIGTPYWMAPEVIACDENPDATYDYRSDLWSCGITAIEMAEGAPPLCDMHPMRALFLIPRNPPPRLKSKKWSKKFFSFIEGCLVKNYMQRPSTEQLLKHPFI

Turning to `Nc1ncc(CNC(=O)C2CC2)c2ccc(-c3cccc(F)c3)cc12` [Example 6, N-[[1-amino-7-(3-fluorophenyl)-4-isoquinolyl]methyl]cyclopropanecarboxamide], the IC50 was 0.0414 µM in experiment [1] and 0.0294 µM in experiment [2].

Take `CN1CC(NC(=O)c2cnc(N)c3cc(-c4cccc(F)c4)ccc23)C1` [Example 7, 1-amino-7-(3-fluorophenyl)-N-(1-methylazetidin-3-yl)isoquinoline-4-carboxamide]: the IC50 in experiment [1] was found to be 0.869 µM; in experiment [2], 0.776 µM.

For `CNC(=O)N1CC(NC(=O)c2cnc(N)c3cc(-c4cccc(F)c4)ccc23)C1` [Example 8, 1-amino-7-(3-fluorophenyl)-N-[1-(methylcarbamoyl)azetidin-3-yl]isoquinoline-4-carboxamide], the IC50 in experiment [1] is 0.0112 µM; in experiment [2] it was 0.015 µM.

Consider `Nc1ncc(C(=O)N[C@H]2C[C@H](O)C2)c2ccc(-c3cccc(F)c3)nc12` [Example 14b, 8-amino-2-(3-fluorophenyl)-N-(trans-3-hydroxycyclobutyl)-1,7-naphthyridine-5-carboxamide], for which the figures for the IC50 in experiment [1] and in experiment [2] were 0.00419 µM and 0.0044 µM, respectively.

For `CCOC(=O)c1cnc(N)c2nc(-c3cccc(F)c3)ccc12` [Example 118, ethyl 8-amino-2-(3-fluorophenyl)-1,7-naphthyridine-5-carboxylate], the IC50 stood at 0.000464 µM in experiment [1] and 0.000648 µM in experiment [2].

Take `CCN1CC(NC(=O)c2cnc(N)c3cc(-c4cccc(F)c4)ccc23)C1` [Example 127, 1-amino-N-(1-ethylazetidin-3-yl)-7-(3-fluorophenyl) isoquinoline-4-carboxamide]: the values for the IC50 in experiment [1] and in experiment [2] were 1.2 µM and 0.756 µM, respectively.

As for `COCC(=O)N1CC(NC(=O)c2cnc(N)c3cc(-c4cccc(F)c4)ccc23)C1` [Example 128, 1-amino-7-(3-fluorophenyl)-N-[1-(2-methoxyacetyl)azetidin-3-yl]isoquinoline-4-carboxamide], the IC50 amounted to 0.0705 µM in experiment [1] and 0.0724 µM in experiment [2].

As for `CNCc1cnc(N)c2cc(-c3cccc(F)c3)ccc12` [Example 129, 7-(3-fluorophenyl)-4-(methylaminomethyl) isoquinolin-1-amine], the IC50 in experiment [1] stood at 4.1 µM; in experiment [2], 3 µM.

As to `Nc1ncc(C(=O)NC(CO)CNC(=O)NC2CC2)c2ccc(-c3cccc(F)c3)cc12` (stereo not shown) [Example 130, 1-amino-N-[1-[(cyclopropyl-carbamoylamino)methyl]-2-hydroxy-ethyl]-7-(3-fluorophenyl) isoquinoline-4-carboxamide], the IC50 in experiment [1] was 0.0609 µM; in experiment [2], 0.0665 µM.

For the compound `CCNC(=O)N1CC(NC(=O)c2cnc(N)c3cc(-c4cccc(F)c4)ccc23)C1` [Example 131, 1-amino-N-[1-(ethylcarbamoyl)azetidin-3-yl]-7-(3-fluorophenyl) isoquinoline-4-carboxamide], the figures for the IC50 in experiment [1] and in experiment [2] were 0.168 µM and 0.174 µM, respectively.

Take `Nc1ncc(C(=O)NC2CN(C(=O)NC3CC3)C2)c2ccc(-c3cccc(F)c3)cc12` [Example 132, 1-amino-N-[1-(cyclopropyl-carbamoyl)azetidin-3-yl]-7-(3-fluorophenyl)isoquinoline-4-carboxamide]: the IC50 is 0.18 µM in experiment [1] and 0.191 µM in experiment [2].

As to `CCNC(=O)NCC(CO)NC(=O)c1cnc(N)c2cc(-c3cccc(F)c3)ccc12` (stereo not shown) [Example 133, 1-amino-N-[1-[(ethylcarbamoyl-amino)methyl]-2-hydroxy-ethyl]-7-(3-fluorophenyl) isoquinoline-4-carboxamide], the IC50 turned out to be 0.0602 µM in experiment [1] and 0.0919 µM in experiment [2].

Turning to `CCOC(=O)c1cnc(N)c2nc(-c3ccc(OC)cc3)ccc12` [Example 150, ethyl 8-amino-2-(4-methoxy-phenyl)-1,7-naphthyridine-5-carboxylate], in experiment [2], the IC50 is 0.0212 µM.

Turning to `CCOC(=O)c1cnc(N)c2nc(-c3ccc(F)cc3C)ccc12` [Example 153, ethyl 8-amino-2-(4-fluoro-2-methyl-phenyl)-1,7-naphthyridine-5-carboxylate], in experiment [2], the IC50 turned out to be 0.00652 µM.

Take `CCOC(=O)c1cnc(N)c2nc(-c3ccc(Cl)cc3Cl)ccc12` [Example 154, ethyl 8-amino-2-(2,4-dichloro-phenyl)-1,7-naphthyridine-5-carboxylate]: half-maximal inhibition in experiment [2] (IC50) required 0.382 µM.

For `CCOC(=O)c1cnc(N)c2nc(-c3ccc(OC)cc3Cl)ccc12` [Example 155, ethyl 8-amino-2-(2-chloro-4-methoxy-phenyl)-1,7-naphthyridine-5-carboxylate], it took 0.134 µM to reach half-maximal inhibition in experiment [2] (IC50).
